Data: patent US6545049B1, “Dimer-selective RXR modulators and methods for their use” (Ligand Pharmaceuticals Incorporated, priority 1995, dated 2003)

Assays:
RXRα:PPARα heterodimer = molecular target: T1, RXRα:PPARα heterodimer (Homo sapiens, UniProt P19793); assay: RXR heterodimer co-transfection assay (RXRα and PPARα, PPARα response element reporter)
T1 sequence (P19793 1-462): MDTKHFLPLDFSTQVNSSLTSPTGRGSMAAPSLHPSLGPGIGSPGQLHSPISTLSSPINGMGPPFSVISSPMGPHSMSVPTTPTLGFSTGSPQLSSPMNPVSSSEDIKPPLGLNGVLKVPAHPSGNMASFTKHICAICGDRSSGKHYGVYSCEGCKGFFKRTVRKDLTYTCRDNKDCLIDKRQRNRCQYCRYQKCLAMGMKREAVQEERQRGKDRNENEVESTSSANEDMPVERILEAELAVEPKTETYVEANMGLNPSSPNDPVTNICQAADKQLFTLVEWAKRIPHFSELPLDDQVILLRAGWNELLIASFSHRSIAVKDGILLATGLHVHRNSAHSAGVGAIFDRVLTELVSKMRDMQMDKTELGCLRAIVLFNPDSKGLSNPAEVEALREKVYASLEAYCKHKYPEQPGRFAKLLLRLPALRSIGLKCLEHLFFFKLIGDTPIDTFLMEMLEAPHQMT
T1 sequence (Q07869 1-468 partner): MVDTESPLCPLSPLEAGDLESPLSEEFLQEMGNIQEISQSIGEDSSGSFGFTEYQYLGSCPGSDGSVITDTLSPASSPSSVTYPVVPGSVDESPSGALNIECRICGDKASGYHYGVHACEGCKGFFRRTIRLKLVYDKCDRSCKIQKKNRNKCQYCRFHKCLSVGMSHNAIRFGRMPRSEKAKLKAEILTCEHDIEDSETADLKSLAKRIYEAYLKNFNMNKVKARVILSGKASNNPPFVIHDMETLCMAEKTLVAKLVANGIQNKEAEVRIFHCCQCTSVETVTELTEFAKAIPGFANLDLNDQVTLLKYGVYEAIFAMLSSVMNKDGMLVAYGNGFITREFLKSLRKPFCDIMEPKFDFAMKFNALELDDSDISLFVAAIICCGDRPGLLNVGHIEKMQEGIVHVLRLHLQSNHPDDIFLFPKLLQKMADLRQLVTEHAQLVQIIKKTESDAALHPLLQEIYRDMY

NB4 cells = assay: NB4 myeloid leukemic cell differentiation; assay type: cell-based; details: Compound 122 1 mM, TTNPB, 9-cis retinoic acid, LG100268 100 nM, FIG. 3
Protocol: All points were performed in triplicate for each experiment and varied less than 20%. Each experiment was repeated at least three times with similar results.

RXRα [1] = molecular target: T2, RXRα (Homo sapiens, UniProt P19793); assay: RXR binding, RXRα; details: -v- tritiated LGD1069 and tritiated 9-cis retinoic acid
T2 sequence (P19793 1-462): T1 sequence (P19793 1-462)
Protocol: (§1) Non-specific binding was defined as that binding remaining in the presence of 500 nM of the appropriate unlabelled compound. At the end of the incubation period, bound from free ligand were separated. The amount of bound tritiated retinoids was determined by liquid scintillation counting of an aliquot (700 μL) of the supernatant fluid or the hydroxylapatite pellet.
(§2) After correcting for non-specific binding, IC50 values were determined. […] The IC50 value was determined graphically from a log-logit plot of the data. The Kd values were determined by application of the Cheng-Prussof equation to the IC50 values, the labeled ligand concentration and the Kd of the labeled ligand.

RXRβ [2] = molecular target: T3, RXRβ (Mus musculus, UniProt P28704); assay: RXR binding, RXRβ; details: -v- tritiated LGD1069 and tritiated 9-cis retinoic acid
T3 sequence (P28704 1-520): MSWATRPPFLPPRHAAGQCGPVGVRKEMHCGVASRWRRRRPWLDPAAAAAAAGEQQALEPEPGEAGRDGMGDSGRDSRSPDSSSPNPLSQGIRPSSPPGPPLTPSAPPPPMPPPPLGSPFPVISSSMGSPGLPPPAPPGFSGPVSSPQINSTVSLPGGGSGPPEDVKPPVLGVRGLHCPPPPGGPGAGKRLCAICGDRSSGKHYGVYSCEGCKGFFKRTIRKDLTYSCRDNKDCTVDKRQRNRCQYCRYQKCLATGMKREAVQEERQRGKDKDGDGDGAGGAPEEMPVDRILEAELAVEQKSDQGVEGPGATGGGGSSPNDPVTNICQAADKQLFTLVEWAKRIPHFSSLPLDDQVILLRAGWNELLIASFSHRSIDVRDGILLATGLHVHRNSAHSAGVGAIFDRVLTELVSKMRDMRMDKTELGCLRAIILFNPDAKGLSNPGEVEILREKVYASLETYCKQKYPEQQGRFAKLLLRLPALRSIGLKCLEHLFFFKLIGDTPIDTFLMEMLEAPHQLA
Protocol: as §1, §2

RXRγ [3] = molecular target: T4, RXRγ (Mus musculus, UniProt P28705); assay: RXR binding, RXRγ; details: -v- tritiated LGD1069 and tritiated 9-cis retinoic acid
T4 sequence (P28705 1-463): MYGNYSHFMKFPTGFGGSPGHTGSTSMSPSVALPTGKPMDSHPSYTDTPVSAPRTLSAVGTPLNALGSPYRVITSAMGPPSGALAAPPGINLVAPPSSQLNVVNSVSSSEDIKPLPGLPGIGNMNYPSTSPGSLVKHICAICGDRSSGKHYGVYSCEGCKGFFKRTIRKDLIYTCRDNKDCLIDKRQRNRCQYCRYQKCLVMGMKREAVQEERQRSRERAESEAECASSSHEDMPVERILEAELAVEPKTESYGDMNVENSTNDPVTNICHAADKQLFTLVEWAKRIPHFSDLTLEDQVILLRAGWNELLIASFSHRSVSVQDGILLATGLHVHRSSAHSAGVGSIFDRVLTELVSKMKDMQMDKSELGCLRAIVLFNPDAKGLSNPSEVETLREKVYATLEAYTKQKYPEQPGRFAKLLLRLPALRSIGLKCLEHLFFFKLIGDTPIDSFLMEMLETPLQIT
Protocol: as §1, §2

RXRα [4] = molecular target: T2, RXRα; assay: RXR homodimer co-transfection assay, antagonist mode, RXRα; details: read-out: RXRα Potency IC50; antagonist potency in the presence of the known RXR agonist LGD1069; CV-1 cells
RXRβ [5] = molecular target: T3, RXRβ; assay: RXR homodimer co-transfection assay, antagonist mode, RXRβ; details: read-out: RXRβ Potency IC50; antagonist potency in the presence of the known RXR agonist LGD1069; CV-1 cells
RXRγ [6] = molecular target: T4, RXRγ; assay: RXR homodimer co-transfection assay, antagonist mode, RXRγ; details: read-out: RXRγ Potency IC50; antagonist potency in the presence of the known RXR agonist LGD1069; CV-1 cells
RXRα:RXRα homodimer = molecular target: T5, RXRα:RXRα homodimer (Homo sapiens, UniProt P19793); assay: Gal4-receptor chimera transactivation assay, RXR homodimer
T5 sequence (P19793 227-458 limits assumed): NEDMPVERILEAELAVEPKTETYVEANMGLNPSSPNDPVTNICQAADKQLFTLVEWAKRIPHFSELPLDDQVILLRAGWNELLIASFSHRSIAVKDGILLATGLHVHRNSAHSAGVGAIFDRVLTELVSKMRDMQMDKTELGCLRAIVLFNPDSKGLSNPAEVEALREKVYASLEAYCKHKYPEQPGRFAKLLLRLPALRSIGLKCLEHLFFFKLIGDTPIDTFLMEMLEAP
Protocol: (§3) Briefly, CV-1 cells were transfected in 12 well multi-well plates using 0.1 μg of each receptor and 0.5 μg of reporter per well. Each well was also transfected with 0.5 μg of the β-Gal expression plasmid as an internal control for transfection efficiency. Total plasmid per well was 2 μg made up using the plasmid pGEM. […] Receptor ligand binding domains (LBDs) were fused in-frame downstream to the Gal4 cDNA to produce Gal4-receptor fusion proteins. To express only the receptor LBDs, the LBD was cloned directly downstream to the CMV promoter.
Cells were then washed 2X with PBS and lysed using Promega lysis buffer and assayed for luciferase activity and β-galactosidase activity. All results were normalized against β-Gal. Each set was done in triplicates and each experiment was carried out at least 3 separate times with similar results.

RXRα:RARα heterodimer = molecular target: T6, RXRα:RARα heterodimer (Homo sapiens, UniProt P19793); assay: Gal4-receptor chimera transactivation assay, RXRα:RARα heterodimer
T6 sequence (P19793 227-458 limits assumed): T5 sequence (P19793 227-458 limits assumed)
T6 sequence (P10276 183-417 partner limits assumed): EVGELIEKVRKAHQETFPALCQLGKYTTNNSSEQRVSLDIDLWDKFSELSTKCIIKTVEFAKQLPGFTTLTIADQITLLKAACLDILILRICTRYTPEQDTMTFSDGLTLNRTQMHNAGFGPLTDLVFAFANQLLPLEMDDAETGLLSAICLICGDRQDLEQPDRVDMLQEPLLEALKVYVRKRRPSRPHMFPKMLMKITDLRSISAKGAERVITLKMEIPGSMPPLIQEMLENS
Protocol: as §3
Cells were then washed 2X with PBS and lysed using Promega lysis buffer and assayed for luciferase activity and β-galactosidase activity. All results were normalized against β-Gal.
The above assay system was used because reporter activity is dependent upon the binding of the Gal4 DNA binding domain to copies of its binding site, the UAS (upstream activation sequence), located upstream of the luciferase cDNA. […] Since endogenous receptors lack the Gal4 DNA binding domain, no background activation of the reporter is observed, however, Gal4-receptor LBD fusion proteins can bind the Gal4 site and be activated in a receptor ligand dependent manner. This system, therefore, completely eliminates the low background activity of endogenous receptors in CV-1 cells making it possible to test compound activity on exogenously added receptors.

## CC(C)(Oc1ccc(Cl)cc1)C(=O)O [Clofibric acid, clofibric acid, reference compound]
RXRα:PPARα heterodimer
  EC50: 40000 nM
RXRα:PPARα heterodimer; normalized luciferase values at 10−4M (clofibric acid) divided by values with vehicle
  Fold activation: 6.5 fold

## C/C(=C\c1ccc(C(=O)O)cc1)c1ccc2c(c1)C(C)(C)CCC2(C)C [TTNPB, (E)-4-[2-(5,6,7,8-tetrahydro-5,5,8,8-tetramethyl-2-naphthalenyl)-1-propenyl]benzoic acid]
NB4 cells
  differentiation of NB4 cells (in words): stimulate NB4 cells to differentiate

## 4-[(3-propoxy-5,6,7,8-tetrahydro-5,5,8,8-tetramethyl-2-naphthyl)carbonyl]benzoic acid O-methyloxime [Compound 110]
RXRα [1]
  Kd: 40 nM
RXRβ [2]
  Kd: 77 nM
RXRγ [3]
  Kd: 66 nM
RXRα [4]
  IC50: 80 nM
RXRβ [5]
  IC50: 217 nM
RXRγ [6]
  IC50: 211 nM

## Cc1cc2c(cc1C1(c3ccc(C(=O)O)cn3)CC1)C(C)(C)CCC2(C)C [LG100268, 6-[1-(3,5,5,8,8-pentamethyl-5,6,7,8-tetrahydronaphthalen-2-yl)cyclopropyl]nicotinic acid]
NB4 cells
  differentiation of NB4 cells (in words): does not promote NB4 differentiation
NB4 cells; listed as LB100268
  differentiation of NB4 cells (in words): does not

## CC(C=CC=C(C)c1cc2c(cc1OCc1ccccc1)C(C)(C)CCC2(C)C)=CC(=O)O [Compound 128, (2E, 4E, 6Z)-7-[3-benzyloxy-5,6,7,8-tetrahydro-5,5,8,8-tetramethyl-2-naphthalen-2-yl]-3-methylocta-2,4,6-trienoic acid]
RXRα [1]
  Kd: 9 nM
RXRβ [2]
  Kd: 23 nM
RXRγ [3]
  Kd: 27 nM
RXRα:PPARα heterodimer
  EC50: 200 nM
RXRα:PPARα heterodimer; normalized luciferase values at 10−5M divided by values with vehicle
  Fold activation: 4 fold

## 4-[(3-propoxy-5,6,7,8-tetrahydro-5,5,8,8-tetramethyl-2-naphthyl)carbonyl]benzoic acid oxime [Compound 109]
RXRα [1]
  Kd: 37 nM
RXRβ [2]
  Kd: 33 nM
RXRγ [3]
  Kd: 47 nM
RXRα [4]
  IC50: 210 nM
RXRβ [5]
  IC50: 193 nM
RXRγ [6]
  IC50: 394 nM

## 4-[(3-n-propyl-5,6,7,8-tetrahydro-5,5,8,8-tetramethyl-2-naphthyl)ethenyl]benzoic acid [Compound 102]
RXRα [1]
  Kd: 282 nM
RXRβ [2]
  Kd: 426 nM
RXRγ [3]
  Kd: 683 nM
RXRα [4]
  IC50: 386 nM
RXRβ [5]
  IC50: 659 nM
RXRγ [6]
  IC50: 1670 nM

## C/C(=C/C=C/C(C)=C/C(=O)O)c1cc2c(cc1OCc1ccc(C)cc1)C(C)(C)CCC2(C)C [Compound 130, (2E, 4E, 6Z)-7-[3-(4-methylbenzyloxy)-5,6,7,8-tetrahydro-5,5,8,8-tetramethyl-2-naphthalen-2-yl]-3-methylocta-2,4,6-trienoic acid]
RXRα:RXRα homodimer; CV-1 cells, 100 nM LG100268, LGD1069, 500 nM Compounds 117, 122, 130, 1 mM Compound 131, n.e. = no effect
  Fold activation: n.e.
RXRα:RXRα homodimer; compound alone
  agonist activity on RXR homodimers in the GAL4 transfection assay (in words): inactive
RXRα:RXRα homodimer; in combination with either LGD1069 or LG100268
  antagonist activity on RXR homodimers in the GAL4 transfection assay (in words): strong antagonists
RXRα:RXRα homodimer; in combination with either LGD1069 or LG100268, 500 nM Compounds 117, 122, 130, 1 mM Compound 131
  Fold Repression: 25-75 fold
RXRα:RARα heterodimer; combined with the RXR:RAR activator TTNPB, data not shown
  effect on RXRα:RARα heterodimer in combination with TTNPB (in words): slight increase in activation
RXRα:RARα heterodimer; compound alone
  agonist activity on RXRα:RARα heterodimers (in words): potent agonists

## CCCc1cc2c(cc1C1(c3ccc(C(=O)O)cc3)CC1)C(C)(C)CCC2(C)C [Compound 103, 4-[(3-n-propyl-5,6,7,8-tetrahydro-5,5,8,8-tetramethyl-2-naphthyl)cyclopropyl]benzoic acid]
RXRα [1]
  Kd: 389 nM
RXRβ [2]
  Kd: 846 nM
RXRγ [3]
  Kd: 936 nM
RXRα [4]
  IC50: 498 nM
RXRβ [5]
  IC50: 701 nM
RXRγ [6]
  IC50: 1670 nM

## CCCOc1cc2c(cc1C1CC1C/C=C/C(C)=C/C(=O)O)C(C)(C)CCC2(C)C (stereo not shown) [Compound 152, (2E, 4E)-6-[2-(5,5,8,8-tetramethyl-3-propyloxy-5,6,7,8-tetrahydronaphthalen-2-yl)cyclopropan-1-yl]-3-methyl hexadienoic acid]
RXRα [1]
  Kd: 8 nM
RXRβ [2]
  Kd: 45 nM
RXRγ [3]
  Kd: 21 nM
RXRα [4]
  IC50: 195 nM
RXRβ [5]
  IC50: 337 nM
RXRγ [6]
  IC50: 428 nM

## (2E, 4E)-7-[(5,5,8,8-tetramethyl-3-propyloxy-5,6,7,8-tetrahydronaphthalen-2-yl)cyclopropan-1-yl]-3-methyl heptadienoic acid [Compound 155]
RXRα [1]
  Kd: 9 nM
RXRβ [2]
  Kd: 9 nM
RXRγ [3]
  Kd: 8 nM
RXRα [4]
  IC50: 24 nM
RXRβ [5]
  IC50: 53 nM
RXRγ [6]
  IC50: 37 nM

## (2E, 4E)-7-[(5,5,8,8-tetramethyl-3-heptyloxy-5,6,7,8-tetrahydronaphthalen-2-yl)cyclopropan-1-yl]-3-methyl heptadienoic acid [Compound 156]
RXRα [1]
  Kd: 11 nM
RXRβ [2]
  Kd: 7 nM
RXRγ [3]
  Kd: 9 nM
RXRα [4]
  IC50: 18 nM
RXRβ [5]
  IC50: 62 nM
RXRγ [6]
  IC50: 47 nM
